Test results from ChEMBL document CHEMBL1131505, “(+)-cis-N-ethyleneamino-N-normetazocine derivatives. Novel and selective sigma ligands with antagonist properties” (J Med Chem, 1998).

Assays:
Opioid receptor [1] = target: T1, Opioid receptor (Rattus norvegicus, UniProt P33533+P34975+P33535); assay: Inhibition of [3H]naloxone binding to Opioid receptors of rat brain membranes; type: cell membranes, Membrane
Sigma 2 receptor = assay: Inhibition of [3H]DTG binding to sigma-2 sites of guinea pig brain membranes
[2] = target: Serotonin 2 (5-HT2) receptor; assay: Inhibition of [3H]ketanserin binding to 5-hydroxytryptamine 2 receptor of guinea pig frontal cortex membranes; type: tissue-based, Cavia porcellus
D(2) dopamine receptor [3] = target: T2, D(2) dopamine receptor (Rattus norvegicus, UniProt P61169); assay: Inhibition of [3H]spiroperidol binding to Dopamine receptor D2 of rat striatal membranes; type: cell membranes, Membrane
[4] = target: T3, Muscarinic acetylcholine receptor M2 (Rattus norvegicus, UniProt P10980); assay: Inhibition of [3H]N-methylscopolamine binding to Muscarinic acetylcholine receptor M2 of rat heart membranes; type: cell membranes, Membrane
T3 sequence (P10980 whole entry): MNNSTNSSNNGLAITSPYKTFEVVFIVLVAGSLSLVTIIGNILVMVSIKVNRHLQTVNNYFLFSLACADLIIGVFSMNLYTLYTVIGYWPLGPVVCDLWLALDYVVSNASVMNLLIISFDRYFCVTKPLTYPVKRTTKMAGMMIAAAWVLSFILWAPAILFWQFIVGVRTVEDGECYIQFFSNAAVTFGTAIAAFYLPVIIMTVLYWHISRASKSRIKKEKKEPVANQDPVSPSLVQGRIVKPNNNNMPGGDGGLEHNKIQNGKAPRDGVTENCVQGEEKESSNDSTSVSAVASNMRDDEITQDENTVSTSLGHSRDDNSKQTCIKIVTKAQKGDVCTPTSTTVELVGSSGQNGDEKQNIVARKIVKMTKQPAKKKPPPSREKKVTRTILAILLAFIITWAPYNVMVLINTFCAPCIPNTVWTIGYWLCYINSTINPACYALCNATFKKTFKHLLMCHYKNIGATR

[5] = Compound was tested for its binding affinity towards PCP receptor in rat membranes in the presence of [3H]-(+)-SKF- 10,047; type: cell membranes
Opioid receptor [6] = target: T1, Opioid receptor; assay: Compound was tested for its binding affinity towards Opioid receptors in rat membranes in the presence of [3H]naloxone; type: cell membranes
D(2) dopamine receptor [7] = target: T2, D(2) dopamine receptor; assay: Binding affinity towards Dopamine receptor D2 in the rat striatal membranes using [3H]spiroperidol; type: cell membranes, Striatum, Membrane

T2 sequence (P61169 whole entry): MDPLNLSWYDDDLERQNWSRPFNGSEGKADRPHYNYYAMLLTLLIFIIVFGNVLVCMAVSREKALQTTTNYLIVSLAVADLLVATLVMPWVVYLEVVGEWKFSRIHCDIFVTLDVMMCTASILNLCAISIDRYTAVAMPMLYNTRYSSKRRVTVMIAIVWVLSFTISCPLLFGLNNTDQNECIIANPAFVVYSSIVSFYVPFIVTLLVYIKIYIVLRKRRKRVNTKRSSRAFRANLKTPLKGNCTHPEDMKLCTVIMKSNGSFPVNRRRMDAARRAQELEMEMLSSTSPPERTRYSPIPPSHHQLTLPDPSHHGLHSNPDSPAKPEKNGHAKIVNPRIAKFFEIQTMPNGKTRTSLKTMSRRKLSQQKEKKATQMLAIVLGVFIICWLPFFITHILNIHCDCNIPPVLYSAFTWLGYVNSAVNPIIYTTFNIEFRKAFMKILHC

Row | SMILES | Ki (Opioid receptor [1]) [nM] | Ki (Sigma 2 receptor) [nM] | Ki [2] [nM] | Ki (D(2) dopamine receptor [3]) [nM] | Ki [4] [nM] | Ki [5] [nM] | Ki (Opioid receptor [6]) [nM] | Ki (D(2) dopamine receptor [7]) [nM]
1 | C[C@@H]1[C@@H]2Cc3ccc(O)cc3[C@]1(C)CCN2CCNc1ccccc1 | 79.8 | 111 |  |  |  |  |  | 
2 | C[C@@H]1[C@@H]2Cc3ccc(O)cc3[C@]1(C)CCN2CCN1CCOCC1 | 8168 | 300 | > 10000 | > 10000 | 419 | > 1000 |  | 
3 | C[C@@H]1[C@@H]2Cc3ccc(O)cc3[C@]1(C)CCN2CCN(C)c1ccccc1 | 28.8 | 124 |  |  |  |  |  | 
4 | CCN(CCN1CC[C@@]2(C)c3cc(O)ccc3C[C@H]1[C@H]2C)c1ccccc1 | 211 | 151 |  |  |  |  |  | 
5 | C[C@@H]1[C@@H]2Cc3ccc(O)cc3[C@]1(C)CCN2CCNCc1ccccc1 |  | 187 |  |  |  |  | 366 | 
6 | C[C@@H]1[C@@H]2Cc3ccc(O)cc3[C@]1(C)CCN2CCN1CCCCCC1 | 9128 | 151 | > 10000 | > 10000 | 1840 | 50.2 |  | 
7 | C[C@@H]1[C@@H]2Cc3ccc(O)cc3[C@]1(C)CCN2CCN(C)C | 2888 | 347 | > 10000 | > 10000 | > 10000 | 3380 |  | 
8 | C[C@@H]1[C@@H]2Cc3ccc(O)cc3[C@]1(C)CCN2CCNC1CCCCC1 | 1466 | 328 | > 10000 | > 10000 | > 10000 | > 10000 |  | 
9 | CCN(CC)CCN1CC[C@@]2(C)c3cc(O)ccc3C[C@H]1[C@H]2C | 12290 | 378 | > 10000 | > 10000 | 1990 | 7640 |  | 
10 | C[C@@H]1[C@@H]2Cc3ccc(O)cc3[C@]1(C)CCN2CCN1CCCCC1 | 12000 | 114 | > 10000 |  | 7800 | > 10000 |  | > 10000
11 | C[C@@H]1[C@@H]2Cc3ccc(O)cc3[C@]1(C)CCN2CCN1CCCC1 | 3800 | 260 | > 10000 | > 10000 | 1950 | > 10000 |  | 
12 | CC(C)=CCN1CC[C@]2(C)c3cc(O)ccc3C[C@H]1[C@H]2C (single isomer, unassigned) [(+)-PENTAZOCINE] |  |  |  |  |  | 4320 | 2370 | 
13 | C=CCN1CC[C@]2(C)c3cc(O)ccc3CC1[C@@H]2C (single isomer, unassigned; (+)) |  |  | > 10000 | > 10000 | > 10000 | 448 | 1900 | 
